In patent publication US11311503B1, “Sterile aqueous choline salt compositions” (Protara Therapeutics, Inc., priority 2021, dated 2022):
Where two headings read alike, the source gives them in different places.

Columns and labels:
[1] = three months post production
[2] = three months post production; remark: listed apart in the source
[3] = Acid 1: 1 N HCl, about 72 hours
[4] = Acid 2: 0.1 N HCl, about 72 hours
[5] = Base 1: 1 N NaOH, about 72 hours
[6] = Base 2: 0.1 N NaOH, about 72 hours
[7] = Heat (dry): 80°, about 72 hours
[8] = Heat (wet): 80°, about 72 hours
[9] = Oxidation: 5% H2O2, about 24 hours
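For % Impurities RRT 1.42/1.44 in this document: Stress-treated samples analysed together with a control by the test method, run time lengthened to catch possible late-eluting degradation peaks.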
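For % Total Impurities in this document: Stress-treated samples analysed together with a control by the test method, run time lengthened to catch possible late-eluting degradation peaks.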
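For Assay % Relative to control in this document: Stress-treated samples analysed together with a control by the test method, run time lengthened to catch possible late-eluting degradation peaks.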
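For Mass Balance % Relative to Control in this document: Stress-treated samples analysed together with a control by the test method, run time lengthened to catch possible late-eluting degradation peaks.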

SMILES: C[N+](C)(C)CCO.[Cl-] [Choline chloride]
- % Impurities RRT 1.42/1.44 [3]: 0.14%
- % Total Impurities [3]: 0.14%
- Assay % Relative to control [3]: 100.4%
- Mass Balance % Relative to Control [3]: 100.5%
- Mass Balance Assay + Impurities [3]: 99.24
- Assay % LC (Acid 1: 1 N HCl, about 72 hours, ambient): 99.1 % LC
- Assay % Relative to control [4]: 100.2%
- Mass Balance % Relative to Control [4]: 100.2%
- Mass Balance Assay + Impurities [4]: 98.9
- Assay % LC (Acid 2: 0.1 N HCl, about 72 hours, ambient): 98.9 % LC
- % Impurities RRT 1.42/1.44 [5]: 0.14%
- % Total Impurities [5]: 0.14%
- Assay % Relative to control [5]: 100.6%
- Mass Balance % Relative to Control [5]: 100.7%
- Mass Balance Assay + Impurities [5]: 99.44
- Assay % LC (Base 1: 1 N NaOH, about 72 hours, ambient): 99.3 % LC
- Assay % Relative to control [6]: 102.1%
- Mass Balance % Relative to Control [6]: 102.1%
- Mass Balance Assay + Impurities [6]: 100.8
- Assay % LC (Base 2: 0.1 N NaOH, about 72 hours, ambient): 100.8 % LC
- Assay % LC (Control: No treatment): 98.7 % LC
- Mass Balance Assay + Impurities (Control: No treatment): 98.7
- Assay % LC (Heat (dry): 80° for about 72 hours): 99.2 % LC
- Assay % Relative to control [7]: 100.5%
- Mass Balance % Relative to Control [7]: 100.5%
- Mass Balance Assay + Impurities [7]: 99.2
- Assay % Relative to control [8]: 100.7%
- Mass Balance % Relative to Control [8]: 100.7%
- Mass Balance Assay + Impurities [8]: 99.4
- Assay % LC (Heat (wet): in the presence of water, 80° for about 72 hours): 99.4 % LC
- Assay % LC (Light (dry): about 7.2 kilolux Visible and 1 W/m^2 UV, about 120 hours): 99.7 % LC
- Assay % Relative to control (Light (dry): about 120 hours): 101.0%
- Mass Balance % Relative to Control (Light (dry): about 120 hours): 101.0%
- Mass Balance Assay + Impurities (Light (dry): about 120 hours): 99.7
- Assay % Relative to control (Light (wet): about 120 hours): 100.2%
- Mass Balance % Relative to Control (Light (wet): about 120 hours): 100.2%
- Mass Balance Assay + Impurities (Light (wet): about 120 hours): 98.9
- Assay % LC (Light (wet): in the presence of water, about 7.2 kilolux Visible and 1 W/m^2 UV, about 120 hours): 98.9 % LC
- % Total Impurities [9]: 0.55%
- Assay % Relative to control [9]: 100.7%
- Mass Balance % Relative to Control [9]: 101.3%
- Mass Balance Assay + Impurities [9]: 99.95
- Assay % LC (Oxidation: 5% H2O2, about 24 hours, ambient): 99.4 % LC
- stability / degradation at all stressed conditions (acid, base, oxidation, light, heat, maximum stress conditions): no significant degradation
- Bacterial Endotoxins [1]: <0.1 EU/mg
- pH (1 in 10 solution) [2]: 5.9
